Results published in PubChem BioAssay (NCI).
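Where inhibition never reached the appropriate level, the endpoint shown equals the highest concentration tested. Otherwise, values were interpolated linearly from a five-concentration, 48-hour dose response in 96-well plates. At the GI50, growth is halved. TGI marks complete inhibition of growth.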

Legend:
Assay in all cases: NCI tumour cell line growth inhibition, 48 h
HL-60(TB) leukemia = tested on: HL-60(TB) leukemia
SK-MEL-5 melanoma = tested on: SK-MEL-5 melanoma
A549 NSCLC = tested on: A549 NSCLC
BT-549 breast = tested on: BT-549 breast
HT29 colon = tested on: HT29 colon
COLO 205 colon = tested on: COLO 205 colon
UO-31 renal = tested on: UO-31 renal
T-47D breast = tested on: T-47D breast
EKVX NSCLC = tested on: EKVX NSCLC
HCT-15 colon = tested on: HCT-15 colon
786-0 renal = tested on: 786-0 renal
UACC-62 melanoma = tested on: UACC-62 melanoma
OVCAR-8 ovarian = tested on: OVCAR-8 ovarian
SNB-19 CNS = tested on: SNB-19 CNS
M14 melanoma = tested on: M14 melanoma
ACHN renal = tested on: ACHN renal
PC-3 prostate = tested on: PC-3 prostate
MDA-MB-231 breast = tested on: MDA-MB-231 breast
NCI-H23 lung = tested on: NCI-H23 lung
SK-OV-3 ovarian = tested on: SK-OV-3 ovarian
HCC-2998 colon = tested on: HCC-2998 colon
LOX IMVI melanoma = tested on: LOX IMVI melanoma
SW-620 colon = tested on: SW-620 colon
OVCAR-4 ovarian = tested on: OVCAR-4 ovarian
KM12 colon = tested on: KM12 colon
MCF7 breast = tested on: MCF7 breast
NCI-H460 lung = tested on: NCI-H460 lung

C(#Cc1ccccc1C#Cc1ccccn1)c1ccccn1
TGI (HL-60(TB) leukemia): 17.7 µM
GI50 (SK-MEL-5 melanoma): 15.5 µM
TGI (SK-MEL-5 melanoma): 30.9 µM
GI50 (A549 NSCLC): 20.5 µM
TGI (A549 NSCLC): 44.3 µM
GI50 (BT-549 breast): 23.6 µM
TGI (BT-549 breast): 45.2 µM
GI50 (HT29 colon): 30.3 µM
TGI (HT29 colon): > 100 µM
GI50 (COLO 205 colon): 16.9 µM
TGI (COLO 205 colon): 46.4 µM
GI50 (UO-31 renal): 16.4 µM
TGI (UO-31 renal): 35.3 µM
GI50 (T-47D breast): 19.4 µM
TGI (T-47D breast): 46.3 µM
GI50 (EKVX NSCLC): 20.5 µM
TGI (EKVX NSCLC): 40.2 µM
GI50 (HCT-15 colon): 11.2 µM
TGI (HCT-15 colon): 25 µM
GI50 (786-0 renal): 18.3 µM
TGI (786-0 renal): > 100 µM
GI50 (UACC-62 melanoma): 14.7 µM
TGI (UACC-62 melanoma): 28.6 µM
GI50 (OVCAR-8 ovarian): 17.8 µM
TGI (OVCAR-8 ovarian): 40.1 µM
GI50 (SNB-19 CNS): 18 µM
TGI (SNB-19 CNS): 39.3 µM
GI50 (M14 melanoma): 22.1 µM
TGI (M14 melanoma): > 100 µM
GI50 (ACHN renal): 15.6 µM
TGI (ACHN renal): 29.6 µM
GI50 (PC-3 prostate): 13.5 µM
TGI (PC-3 prostate): 30.2 µM
GI50 (MDA-MB-231 breast): 16.6 µM
TGI (MDA-MB-231 breast): 36.6 µM
GI50 (NCI-H23 lung): 19 µM
TGI (NCI-H23 lung): 46.4 µM
GI50 (SK-OV-3 ovarian): 16.5 µM
TGI (SK-OV-3 ovarian): 37.9 µM
GI50 (HCC-2998 colon): 4.77 µM
TGI (HCC-2998 colon): 14.5 µM
GI50 (LOX IMVI melanoma): 15.4 µM
TGI (LOX IMVI melanoma): 30.9 µM
GI50 (SW-620 colon): 21.2 µM
TGI (SW-620 colon): 56.7 µM
GI50 (OVCAR-4 ovarian): 38 µM
TGI (OVCAR-4 ovarian): > 100 µM
GI50 (KM12 colon): 11 µM
TGI (KM12 colon): 22.9 µM
GI50 (MCF7 breast): 14.3 µM
TGI (MCF7 breast): 38.2 µM
GI50 (NCI-H460 lung): 23.1 µM
TGI (NCI-H460 lung): 58.8 µM
